According to patent publication US10947251B2, “Therapeutic compounds and methods of use thereof” (GENENTECH, INC., priority 2018, dated 2021):

How the values were obtained:
[1] = biological target: T1, hNav1.7 (Homo sapiens (Human), UniProt Q15858); assay: Electrophysiological assay (EP), voltage clamp on Syncropatch 384PE; assay type: cell-based; settings: CHO cells expressing Nav1.7, holding potential −50 mV, 7.5 min compound incubation; read-out: EP_SP hNav1.7 EVO IC50
Description: Example 39C. Electrophysiological Assay (EP) (In Vitro Assay)
Patch voltage clamp electrophysiology allows for the direct measurement and quantification of block of voltage-gated sodium channels (NaV's), and allows the determination of the time- and voltage-dependence of block which has been interpreted as differential binding to the resting, open, and inactivated states of the sodium channel (Hille, B., Journal of General Physiology (1977), 69: 497-515).
The following voltage clamp electrophysiology studies were performed on representative compounds using cells heterologously expressing Nav1.7 or Nav1.5 channels. cDNAs for Nav1.7 (NM_002977) and Nav1.5 (AC137587) were stably expressed in Chinese Hamstr Ovary (CHO) cells and CHL (Chinese Hamster Lung) cells respectively. Sodium currents were measured in the whole-cell configuration using Syncropatch 384PE (Nanlon Technologies, Germany). 1NPC®-384 chips with custom medium resistance and single hole mode are used. Internal solution consists of (in mM): 110 […], 10 CsCl, 20 EGTA, and 10 Hepes (pH adjusted to 7.2); and external solution contains (in mM): 60 NMDG, 80 NaCl, 4 KCl, 1 MgCl2, 2 CaCl2, 2 D-Glucose monohydrate, 10 Hepes (pH adjusted to 7.4 with NaOH).
After system flushing, testing compounds are dissolved in external solution containing 0.1% Pluronic F-127. The chip is moved into the measuring head and the instrument primes the chip with external and internal solutions. 10 l cells are added to the chip from a cell hotel, and a negative pressure of −50 mBar is applied to form a seal. Following treatment with seal enhancer solution and wash-off with external solution, negative pressure of −250 mbar is applied for 1 second to achieve the whole-cell configuration, followed by three washing steps in external solution. 20 µl of compounds is added to 40 µl in each well (1:3 dilution of compounds), and after mixing, 20 l is removed so the volume is retained at 40 ul. After approximately 13 minutes recordings, 20 µl/well of 2 uM TTX, or 333 uM Tetracaine (for Nav1.5) is added to achieve full block.
For voltage protocol, an holding potential of −50 mV is applied during the whole experiment. A depolarizing step is applied to −10 mV for 10 ms, followed by a hyperpolarization step to −150 mV for 20 ms to allow channel recovery from inactivation. A second depolarizing step is applied from −150 mV to −10 mV for 10 ms, where currents were measured to derive blocking effects of compounds. Inhibition is determined based on 7.5 min of compound incubation.

[2] = biological target: T1, hNav1.7; assay: Tritiated compound binding to membranes from cells heterologously expressing hNav1.7 and the β1 subunit (LBA); settings: competitive binding vs [3H]compound, membranes with hNav1.7 and β1 subunit; read-out: Nav1.7 LBA EVO IC50
Protocol: Example 39A. Tritiated Compound Binding to Membranes Isolated from Cells that Heterologously Express hNav1.7 and the β1 Subunit
Preparation of membranes containing recombinantly expressed sodium channels: Frozen recombinant cell pellets were thawed on ice and diluted to 4 times the cell pellet weight with ice cold 50 mM Tris HCl, pH 7.4 buffer. The cell suspensions were homogenized on ice using a motorized glass dounce homogeniser. Homogenates were further diluted 8.4 times with ice cold 50 mM Tris HCl, pH 7.4 buffer and then centrifuged at 200×g at 4° C. for 15 min. The supernatants were collected and centrifuged at 10000×g at 4° C. for 50 min. The pellets were then re-suspended in 100 mM NaCl, 20 mM Tris HCl, pH 7.4 buffer containing 1% v/v protease inhibitors (Calbiochem) and re-homogenized on ice. The homogenized membranes were then processed through a syringe equipped with a 26 gauge needle. Protein concentrations were determined by Bradford Assay and the membranes were stored at −80° C.
Saturation experiments. A competitive NaV1.7 inhibitor having a methyl group was tritiated. Three tritiums were incorporated in place of methyl hydrogens to generate [^3H]compound. Binding of this radioligand was performed in 5 mL borosilicate glass test tubes at room temperature. Binding was initiated by adding membranes to increasing concentrations of [^3H]compound in 100 mM NaCl, 20 mM Tris HCl, pH 7.4 buffer containing 0.01% w/v bovine serum albumin (BSA) for 18 h. Non-specific binding was determined in the presence of 1 μM unlabeled compound. After 18 h, the reactants were filtered through GF/C glass fiber filters presoaked in 0.5% w/v polyethylene imine. Filters were washed with 15 mL ice cold 100 mM NaCl, 20 mM Tris HCl, pH7.4 buffer containing 0.25% BSA to separate bound from free ligand. [^3H]compound bound to filters was quantified by liquid scintillation counting.
Binding reactions were performed in 96-well polypropylene plates at room temperature for 18 h. In 360 μL, membranes were incubated with 100 pM [^3H]compound and increasing concentrations of Test Compound. Non-specific binding was defined in the presence of 1 μM unlabeled compound. Reactions were transferred and filtered through 96-well glass fiber/C filter plates presoaked with 0.5% polyethylene imine. The filtered reactions were washed 5 times with 200 μL ice cold buffer containing 0.25% BSA. Bound radioactivity was determined by liquid scintillation counting.
For saturation experiments, non-specific binding was subtracted from total binding to provide specific binding and these values were recalculated in terms of pmol ligand bound per mg protein. Saturation curves were constructed and dissociation constants were calculated using the single site ligand binding model: Beq=(Bmax*X)/(X+Kd), where Beq is the amount of ligand bound at equilibrium, Bmax is the maximum receptor density, Kd is the dissociation constant for the ligand, and X is the free ligand concentration. For competition studies percent inhibition was determined and IC50 values were calculated using a 4 parameter logistic model (% inhibition=(A+((B−A)/(1+((x/C)^D)))) using XLfit, where A and B are the maximal and minimum inhibition respectively, C is the IC50 concentration and D is the (Hill) slope.
Example 39B. Tritiated Compound Binding to Membranes Isolated from Cells that Heterologous Express hNav1.7 and the β1 Subunit
Following the procedure described in Example 39A, and making modifications as required to: centrifuge supernatants at 100000×g instead of 10000×g; re-suspend pellets in a buffer containing 0.01% BSA in addition to 100 mM NaCl, 20 mM Tris HCl, pH 7.4 buffer, and 1% v/v […]; and storing membranes at −80° C. in single use aliquots instead of pooled.
Saturation experiments: Following the procedure described in Example 243A, and making modifications as required to incubate [3H]compound for 3 hours instead of 18 hours. […]

SMILES	IC50 [1] [nM]	IC50 [2] [nM]
COc1cc(-c2cccc(OC(F)(F)F)c2)c(F)cc1N1C(=O)CO[C@@H]2CN(S(=O)(=O)Nc3ccon3)CC[C@H]21 [Example 29, (4aR,8aR)-1-(2-fluoro-5-methoxy-3′-(trifluoromethoxy)-[1,1′-biphenyl]-4-yl)-N-(isoxazol-3-yl)-2-oxohexahydro-1H-pyrido[3,4-b][1,4]oxazine-6(7H)-sulfonamide]	2.21	62.3
COc1cc(-c2cc(C(F)(F)F)ccc2F)c(F)cc1N1C(=O)CO[C@H]2CN(S(=O)(=O)Nc3ccon3)CC[C@@H]21 [Example 8, (4aS,8aS)-1-(2,2′-difluoro-5-methoxy-5′-(trifluoromethyl)-[1,1′-biphenyl]-4-yl)-N-(isoxazol-3-yl)-2-oxohexahydro-1H-pyrido[3,4-b][1,4]oxazine-6(7H)-sulfonamide]	4.92	82.8
COc1cc(-c2cccc(C(F)(F)F)c2)c(F)cc1N1C(=O)CC[C@H]2CN(S(=O)(=O)Nc3ccon3)CCC21 (stereo in doubt) [Example 37, (4aS,8aR)-1-(2-fluoro-5-methoxy-3′-(trifluoromethyl)-[1,1′-biphenyl]-4-yl)-N-(isoxazol-3-yl)-2-oxooctahydro-1,6-naphthyridine-6(2H)-sulfonamide]	12.9	761
COc1cc(-c2cccc(C(F)(F)F)c2)c(F)cc1N1CCO[C@@H]2CN(S(=O)(=O)Nc3ccon3)CC[C@H]21 [Example 25, (4aR,8aR)-1-(2-fluoro-5-methoxy-3′-(trifluoromethyl)-[1,1′-biphenyl]-4-yl)-N-(isoxazol-3-yl)hexahydro-1H-pyrido[3,4-b][1,4]oxazine-6(7H)-sulfonamide]	2.36	208
COc1cc(-c2cccc(C(F)(F)F)c2)c(F)cc1N1C(=O)CC[C@@H]2CN(S(=O)(=O)Nc3ccon3)CC[C@H]21 [Example 35, (4aR,8aR)-1-(2-fluoro-5-methoxy-3′-(trifluoromethyl)-[1,1′-biphenyl]-4-yl)-N-(isoxazol-3-yl)-2-oxooctahydro-1,6-naphthyridine-6(2H)-sulfonamide]	2.88	49.3
COc1cc(-c2cccc(C(F)F)c2)c(F)cc1N1C(=O)CO[C@@H]2CN(S(=O)(=O)Nc3ccon3)CC[C@H]21 [Example 15, (4aR,8aR)-1-(3′-(difluoromethyl)-2-fluoro-5-methoxy-[1,1′-biphenyl]-4-yl)-N-(isoxazol-3-yl)-2-oxohexahydro-1H-pyrido[3,4-b][1,4]oxazine-6(7H)-sulfonamide]	46.7	2000
COc1cc(-c2cccc(C(F)(F)F)c2)c(F)cc1N1C(=O)CO[C@@H]2CN(S(=O)(=O)Nc3ccon3)CC[C@H]21 [Example 3, (4aR,8aR)-1-(2-fluoro-5-methoxy-3′-(trifluoromethyl)-[1,1′-biphenyl]-4-yl)-N-(isoxazol-3-yl)-2-oxohexahydro-1H-pyrido[3,4-b][1,4]oxazine-6(7H)-sulfonamide]	2.26	67
COc1cc(-c2cccc(C(F)(F)F)c2)c(F)cc1N1C(=O)CC[C@H]2CN(S(=O)(=O)Nc3ccon3)CCC21 (stereo in doubt) [Example 36, (4aS,8aS)-1-(2-fluoro-5-methoxy-3′-(trifluoromethyl)-[1,1′-biphenyl]-4-yl)-N-(isoxazol-3-yl)-2-oxooctahydro-1,6-naphthyridine-6(2H)-sulfonamide]	2.19	20.7
COc1cc(-c2cccc(C(F)(F)F)c2)ccc1N1C(=O)CO[C@H]2CN(S(=O)(=O)Nc3ccon3)CC[C@@H]21 [Example 18, (4aS,8aS)-N-(isoxazol-3-yl)-1-(3-methoxy-3′-(trifluoromethyl)-[1,1′-biphenyl]-4-yl)-2-oxohexahydro-1H-pyrido[3,4-b][1,4]oxazine-6(7H)-sulfonamide]	5.86	346
COc1cc(-c2cccc(F)c2)c(F)cc1N1C(=O)CO[C@@H]2CN(S(=O)(=O)Nc3ccon3)CC[C@H]21 [Example 9, (4aR,8aR)-1-(2,3′-difluoro-5-methoxy-[1,1′-biphenyl]-4-yl)-N-(isoxazol-3-yl)-2-oxohexahydro-1H-pyrido[3,4-b][1,4]oxazine-6(7H)-sulfonamide]	19.4	2000
COc1cc(-c2cccc(C(F)(F)F)c2)c(F)cc1N1CCO[C@@H]2CN(S(=O)(=O)Nc3ccncn3)CC[C@H]21 [Example 27, (4aR,8aR)-1-(2-fluoro-5-methoxy-3′-(trifluoromethyl)-[1,1′-biphenyl]-4-yl)-N-(pyrimidin-4-yl)hexahydro-1H-pyrido[3,4-b][1,4]oxazine-6(7H)-sulfonamide]	2.02	21.2
COc1nc(-c2cccc(C(F)(F)F)c2)c(F)cc1N1C(=O)CO[C@H]2CN(S(=O)(=O)Nc3ccon3)CC[C@@H]21 [Example 22, (4aS,8aS)-1-(5-fluoro-2-methoxy-6-(3-(trifluoromethyl)phenyl)pyridin-3-yl)-N-(isoxazol-3-yl)-2-oxohexahydro-1H-pyrido[3,4-b][1,4]oxazine-6(7H)-sulfonamide]	66.8	907
COc1cc(-c2ccc(F)c(C(F)(F)F)c2)c(F)cc1N1C(=O)CO[C@@H]2CN(S(=O)(=O)Nc3ccon3)CC[C@H]21 [Example 1, (4aR,8aR)-1-(2,4′-difluoro-5-methoxy-3′-(trifluoromethyl)-[1,1′-biphenyl]-4-yl)-N-(isoxazol-3-yl)-2-oxohexahydro-1H-pyrido[3,4-b][1,4]oxazine-6(7H)-sulfonamide]	1.12	44.3
